This assay relates to NLRP3 inflammasome pathway. Nature of the assay: NLRP3 inflammasome pathway activation assay, IL-1β release (HTRF) in human monocyte-like cells stimulated with MSU or Nigericin. Format: cell-based. As to the method:
The following assays were used to determine the inhibitory activity of test compounds on the NLRP3 inflammasome pathway using common stimuli Nigericin (Invivogen) or monosodium urate crystals (MSU) (Invivogen).
Human monocyte-like cells were cultured in RPMI-1640 Glutamax medium supplemented with 10% heat inactivated FCS and 50 U/ml penicillin-streptomycin (Life Technologies).
Human monocyte-like cells were seeded at 75000 per well in a 96-well plate and were differentiated overnight into macrophages with 10 ng/ml PMA (Phorbol Myristate Acetate). The following day, medium containing 10 ng/ml LPS (Lipopolysaccharide) were added. After 3 hours of LPS priming, concentrations of test compound in the range from 100 μM to 6 nM were added 30 min prior to NLRP3 inflammasome pathway stimulation with Nigericin 3.75 μM or MSU 200 μg/ml for 3 h.
For IL-1β quantification, supernatants were analyzed using HTRF kit according to the manufacturer's instructions (Cisbio 62HIL1BPEH). Briefly, in a 384-well ProxiPlate™ microplate, 8 μl of sample was mixed, with 4 μl of Anti-IL1β Cryptate antibody (40×) and Anti-IL1β XL antibody (40×). Then, incubated overnight at RT. Reading was done using an EnVision Reader (PerkinElmer).
IC50 (concentration corresponding to 50% inhibition) were determined using GraphPad Prism 8.
For orientation: In TR-FRET formats the signal depends on donor and acceptor labels being close together.

Where [1] appears, read: Homo sapiens, 3 h, IL-1β release, PMA-differentiated, LPS-primed cells, MSU 200 μg/ml for 3 h, read-out: IC50 Human monocyte-like cells MSU.
Where [2] appears, read: Homo sapiens, 3 h, read-out: IC50 Human monocyte-like cells Nigericin (μM).
The mark [3] stands for this setting: IL-1β release, PMA-differentiated, LPS-primed cells, MSU 200 μg/ml for 3 h, read-out: IC50 Human monocyte-like cells MSU.

The values that follow come from patent US20250109126A1, “DIHYDRO-OXAZOL DERIVATIVE COMPOUNDS” (AC IMMUNE SA, priority 2021, published 2025).

Structures are written as SMILES. Read-outs that look alike come from different tables or passages of the source.

`CCOC(=O)C1(c2ccon2)CN=C(Nc2c(-c3ccnc(OC)c3)cc(F)cc2C(C)C)O1` (racemic) [Example 1, ethyl 2-{[4-fluoro-2-(2-methoxypyridin-4-yl)-6-(propan-2-yl)phenyl]amino}-5-(1,2-oxazol-3-yl)-4,5-dihydro-1,3-oxazole-5-carboxylate]: the IC50 under setting [1] was below 1 µM. Turning to `CCOC(=O)C1(c2ccon2)CN=C(Nc2c(-c3ccnc(OC)c3)ccc3c2CCC3)O1` (racemic) [Example 4, ethyl 2-{[5-(2-methoxypyridin-4-yl)-2,3-dihydro-1H-inden-4-yl]amino}-5-(1,2-oxazol-3-yl)-4,5-dihydro-1,3-oxazole-5-carboxylate], the IC50 under setting [1] is below 1 µM. As to `CCOC(=O)C1(c2ccon2)CN=C(Nc2c3c(c(C)c4c2CCC4)CCC3)O1` (racemic) [Example 7, ethyl 5-(isoxazol-3-yl)-2-((8-methyl-1,2,3,5,6,7-hexahydro-s-indacen-4-yl)amino)-4,5-dihydrooxazole-5-carboxylate], the IC50 under setting [1] is below 1 µM. Consider `COc1cc(-c2ccc3c(c2NC2=NCC(C(=O)O)(c4ccon4)O2)CCC3)ccn1` (racemic) [Example 12, 2-{[5-(2-methoxypyridin-4-yl)-2,3-dihydro-1H-inden-4-yl]amino}-5-(1,2-oxazol-3-yl)-4,5-dihydro-1,3-oxazole-5-carboxylic acid], for which, under setting [1], the IC50 was in the range of 1 to 10 µM.

Consider `CCOC(=O)C1(c2ccon2)CN=C(Nc2c(-c3ccnc(OC)c3)ccc3c2CCO3)O1` (racemic) [Example 17, ethyl 5-(isoxazol-3-yl)-2-((5-(2-methoxypyridin-4-yl)-2,3-dihydrobenzofuran-4-yl)amino)-4,5-dihydrooxazole-5-carboxylate], for which, under setting [1], the 50% inhibitory concentration (IC50) was below 1 µM. Same read-out and setting: with `CCOC(=O)C1(c2ccon2)CN=C(Nc2c(-c3ccncc3)cc(F)cc2C(C)C)O1` (racemic) [Example 18, ethyl 2-((4-fluoro-2-isopropyl-6-(pyridin-4-yl)phenyl)amino)-5-(isoxazol-3-yl)-4,5-dihydrooxazole-5-carboxylate] the figure was below 1 µM; with `CCOC(=O)C1(c2ccon2)CN=C(Nc2c(-c3ccnc(OC)c3)cc(F)c3c2CCC3)O1` (racemic) [Example 19, ethyl 2-((7-fluoro-5-(2-methoxypyridin-4-yl)-2,3-dihydro-1H-inden-4-yl)amino)-5-(isoxazol-3-yl)-4,5-dihydrooxazole-5-carboxylate], below 1 µM. In the case of `CCOC(=O)C1(c2ccon2)CN=C(Nc2c3c(cc(C)c2-c2ccnc(OC)c2)CCC3)O1` (racemic) [Example 20, ethyl 5-(isoxazol-3-yl)-2-((5-(2-methoxypyridin-4-yl)-6-methyl-2,3-dihydro-1H-inden-4-yl)amino)-4,5-dihydrooxazole-5-carboxylate], the IC50 under setting [1] was below 1 µM.

For the molecule `CCOC(=O)C1(c2ccon2)CN=C(Nc2c3c(c(C(F)(F)F)c4c2CCC4)CCC3)O1` (racemic) [Example 21, ethyl 5-(isoxazol-3-yl)-2-((8-(trifluoromethyl)-1,2,3,5,6,7-hexahydro-s-indacen-4-yl)amino)-4,5-dihydrooxazole-5-carboxylate], the IC50 runs as follows: under setting [1], 1 to 10 µM; under setting [2], below 1 µM. On to `CCOC(=O)C1(c2ccon2)CN=C(Nc2c(C(C)C)cc(F)cc2C(C)C)O1` (racemic) [Example 23, ethyl 2-((4-fluoro-2,6-diisopropylphenyl)amino)-5-(isoxazol-3-yl)-4,5-dihydrooxazole-5-carboxylate], for which the IC50 under setting [1] fell in the range of 1 to 10 µM. Turning to `CCOC(=O)C1(c2ccon2)CN=C(Nc2c(-c3ccnc(OC)c3)cc(F)cc2C(C)C)O1` (single isomer, unassigned) [Example 2, ethyl 2-{[4-fluoro-2-(2-methoxypyridin-4-yl)-6-(propan-2-yl)phenyl]amino}-5-(1,2-oxazol-3-yl)-4,5-dihydro-1,3-oxazole-5-carboxylate], the IC50 under setting [1] was below 1 µM. Take `CCOC(=O)C1(c2ccon2)CN=C(Nc2c(-c3ccnc(OC)c3)cc(F)cc2C(C)C)O1` (single isomer, unassigned) [Example 3, ethyl 2-{[4-fluoro-2-(2-methoxypyridin-4-yl)-6-(propan-2-yl)phenyl]amino}-5-(1,2-oxazol-3-yl)-4,5-dihydro-1,3-oxazole-5-carboxylate]: under setting [3], the IC50 fell in the range of 1 to 10 µM. As to `CCOC(=O)C1(c2ccon2)CN=C(Nc2c3c(c(-c4ccccc4)c4c2CCC4)CCC3)O1` (single isomer, unassigned) [Example 9, ethyl 5-(isoxazol-3-yl)-2-((8-phenyl-1,2,3,5,6,7-hexahydro-s-indacen-4-yl)amino)-4,5-dihydrooxazole-5-carboxylate], the IC50 runs as follows: under setting [2], 1 to 10 µM; under setting [3], below 1 µM. As for `COc1cc(-c2cc(F)cc(C(C)C)c2NC2=NCC(C(=O)O)(c3ccon3)O2)ccn1` (single isomer, unassigned) [Example 11, 2-{[4-fluoro-2-(2-methoxypyridin-4-yl)-6-(propan-2-yl)phenyl]amino}-5-(1,2-oxazol-3-yl)-4,5-dihydro-1,3-oxazole-5-carboxylic acid], the IC50 was below 1 µM under setting [1] and 1 to 10 µM under setting [2]. As to `Cc1c2c(c(NC3=NCC(C(=O)O)(c4ccon4)O3)c3c1CCC3)CCC2` (single isomer, unassigned) [Example 15, 2-[(8-methyl-1,2,3,5,6,7-hexahydro-s-indacen-4-yl)amino]-5-(1,2-oxazol-3-yl)-4,5-dihydro-1,3-oxazole-5-carboxylic acid], under setting [1], the IC50 is 1 to 10 µM.

As for `CCOC(=O)C1(c2ccon2)CN=C(Nc2c3c(c(-c4ccccc4)c4c2CCC4)CCC3)O1` (single isomer, unassigned) [Example 16, ethyl 5-(isoxazol-3-yl)-2-((8-phenyl-1,2,3,5,6,7-hexahydro-s-indacen-4-yl)amino)-4,5-dihydrooxazole-5-carboxylate], the IC50 under setting [3] is 10 to 30 µM and the IC50 (read-out: IC50 Human monocyte-like cells Nigericin, IL-1β release, PMA-differentiated, LPS-primed cells, Nigericin 3.75 μM for 3 h) fell in the range of 1 to 10 µM. Regarding `COc1cc(-c2cc(F)cc(C(C)C)c2NC2=NCC(C(=O)O)(c3ccon3)O2)ccn1` (stereo not shown) [Example 10, 2-{[4-fluoro-2-(2-methoxypyridin-4-yl)-6-(propan-2-yl)phenyl]amino}-5-(1,2-oxazol-3-yl)-4,5-dihydro-1,3-oxazole-5-carboxylic acid], the IC50 under setting [1] is below 1 µM.

As to `COc1cc(-c2ccc3c(c2NC2=NCC(C(=O)O)(c4ccon4)O2)CCC3)ccn1` (stereo not shown) [Example 13, 2-{[5-(2-methoxypyridin-4-yl)-2,3-dihydro-1H-inden-4-yl]amino}-5-(1,2-oxazol-3-yl)-4,5-dihydro-1,3-oxazole-5-carboxylic acid], the IC50 is, setting by setting: under setting [1], below 1 µM; under setting [2], 10 to 30 µM.

`Cc1c2c(c(NC3=NCC(C(=O)O)(c4ccon4)O3)c3c1CCC3)CCC2` (stereo not shown) [Example 14, 2-[(8-methyl-1,2,3,5,6,7-hexahydro-s-indacen-4-yl)amino]-5-(1,2-oxazol-3-yl)-4,5-dihydro-1,3-oxazole-5-carboxylic acid]: the IC50 under setting [1] is 1 to 10 µM. With `COc1cc(-c2ccc3c(c2NC2=NCC(C(=O)O)(c4ccon4)O2)CCO3)ccn1` (stereo not shown) [Example 24, 5-(isoxazol-3-yl)-2-((5-(2-methoxypyridin-4-yl)-2,3-dihydrobenzofuran-4-yl)amino)-4,5-dihydrooxazole-5-carboxylic acid], under setting [1], the IC50 is 1 to 10 µM.

Take `CC(C)c1cc(F)cc(-c2ccncc2)c1NC1=NCC(C(=O)O)(c2ccon2)O1` (stereo not shown) [Example 25, 2-((4-fluoro-2-isopropyl-6-(pyridin-4-yl)phenyl)amino)-5-(isoxazol-3-yl)-4,5-dihydrooxazole-5-carboxylic acid]: under setting [1], the IC50 was 1 to 10 µM. As for `COc1cc(-c2cc(F)c3c(c2NC2=NCC(C(=O)O)(c4ccon4)O2)CCC3)ccn1` (stereo not shown) [Example 26, 2-((7-fluoro-5-(2-methoxypyridin-4-yl)-2,3-dihydro-1H-inden-4-yl)amino)-5-(isoxazol-3-yl)-4,5-dihydrooxazole-5-carboxylic acid], the IC50 under setting [1] was 1 to 10 µM.

Turning to `COc1cc(-c2c(C)cc3c(c2NC2=NCC(C(=O)O)(c4ccon4)O2)CCC3)ccn1` (stereo not shown) [Example 27, 5-(isoxazol-3-yl)-2-((5-(2-methoxypyridin-4-yl)-6-methyl-2,3-dihydro-1H-inden-4-yl)amino)-4,5-dihydrooxazole-5-carboxylic acid], the IC50 runs as follows: under setting [1], below 1 µM; under setting [2], 1 to 10 µM. In the case of `O=C(O)C1(c2cnoc2)CN=C(Nc2c3c(c(-c4ccccc4)c4c2CCC4)CCC3)O1` (stereo not shown) [Example 28, lithium 5-(isoxazol-4-yl)-2-((8-phenyl-1,2,3,5,6,7-hexahydro-s-indacen-4-yl)amino)-4,5-dihydrooxazole-5-carboxylate], the IC50 (Homo sapiens, 3 h, read-out: IC50 Human monocyte-like cells MSU (μM)) was 10 to 30 µM and the IC50 under setting [2] is 10 to 30 µM.

A word on the IC50: it is the point on the concentration scale where inhibition reaches its midpoint.
